Results published in patent publication US20250333708A1, “MANIPULATING NEPHRON DIFFERENTIATION RATE IN INDUCED HUMAN PLURIPOTENT STEM CELL ORGANOIDS AND TISSUES BY ENGINEERING MECHANICS OF THE MICROENVIRONMENT” (THE TRUSTEES OF THE UNIVERSITY OF PENNSYLVANIA, priority 2022, published 2025).

Legend:
[1] = test system: day 9 iPSC-derived metanephric mesenchyme; experiment: CHIR effect on day 9 iPSC-derived metanephric mesenchyme (substrate release and compaction); format: cell-based, human; conditions: day 9 cells, CHIR pulse; ascribed to collective cell contractility rather than motility
Text: We next turned to a bottom-up approach using human iPSC-derived nephron progenitor organoids to assess the effects of mechanical microenvironment changes on nephron differentiation (FIG. 6B). When differentiated, these roughly mimic the progression in transcriptional states and marker expression profiles of mouse nephron progenitors in vivo, despite some species-specific differences (61-65). To test perturbations to cell collective tension during nephron progenitor commitment, we first differentiated PSCs through late primitive streak and posterior intermediate mesoderm (PIM) lineages to metanephric mesenchyme according to established protocols (66), confirming by qPCR (FIG. 10). We also validated that induced metanephric mesenchyme cells go on to form later nephron structures including ECAD+tubules containing GATA3+ distal nephron cells and Na^+/[…]/2Cl^− cotransporter SLC12A1+ loop of Henle cells after 21 days in culture (FIG. 6C). Day 9 induced metanephric mesenchyme cells were dissociated and plated into low-attachment round-bottom plates where they formed spheroids that we assayed for early nephrogenesis (FIG. 6D). In similar assays, a CHIR pulse is typically applied after re-aggregation of cells to mimic Wnt9b-driven β-catenin signaling during nephron progenitor commitment in vivo (61,62,67,68). […]

[2] = test system: day 9 metanephric mesenchyme spheroids (human iPSC-derived nephron progenitors); experiment: Nephron progenitor spheroid differentiation assay (SIX2 / LHX1 immunofluorescence); format: cell-based; conditions: 48 hr; for LHX1+ early nephron cells in spheroids (marker positive pixel area as % of projection area): single agent in FGF9 basal media, 3 μM CHIR or 10 μM Y27632; for LHX1+ early nephron cells in spheroids, agent combined with CHIR: 3 μM CHIR plus 10 μM Y27632 or 30 μM blebbistatin
Procedure: We then decided to mimic the reduction in anisotropic stress that occurs over the tip life-cycle in vivo by adding the ROCK inhibitor Y-27632 or the non-muscle myosin II inhibitor blebbistatin to day 9 metanephric mesenchyme spheroids for 48 hr. These temporal parameters were optimized to capture early transitions of cells through the SIX2+ state and to accumulate differentiation events sparsely, enabling quantification. Spheroids were analyzed by immunofluorescence for SIX2 and the pre-tubular aggregate/renal vesicle (early nephron) marker LHX1 (FIG. 6E). […] These LHX1+ cells clustered and began to express the later medial nephron marker Jag1, indicating appropriate progression of differentiation after perturbation (FIG. 6D).
Nephron progenitor spheroid differentiation assays. Day 9 cap mesenchyme-stage nephron progenitors were lifted with Accutase and re-plated at 50,000 cells per well in 96-well ultra low attachment round-bottom plates (Corning 7007) in Advanced RPMI 1640 Medium, Glutamax, 1× Penn/Strep and 10 ng ml^−1 FGF9 (“basal media”) plus the specified perturbation conditions, which included 3 μM CHIR, 10 μM Y27632 (StemCell Technologies, 72304) from a 10 mM stock in DMSO, and/or 30 μM(S) (S)-(−)-blebbistatin (Tocris, 1852) from a 30 mM stock in DMSO. Cells were then aggregated by plate centrifugation at 300 g for 30 s. After 48 hr in culture, spheroids were collected and transferred to 1.7 mL tubes using a p200 pipette tip widened by cutting the tip to size with a razor blade. Excess media was removed and spheroids were fixed in ice-cold 4% paraformaldehyde in PBS for 15 min. Spheroids were then stained for immunofluorescence microscopy similar to kidneys (see Kidney immunofluorescence imaging.) via primary and secondary antibody incubation for 48 hr each at 4 C and washes in PBSTX totaling 6 hours. Primary antibodies and dilutions included mouse anti-Lhx1 (1:50, 4F2, Developmental Studies Hybridoma Bank, University of Iowa, RRID: AB_531784) and rabbit anti-Six2 (1:600, 11562-1-AP, Proteintech, RRID: AB_2189084). Spheroids were then incubated in 1 μg ml^−1 DAPI in PBS at 4 C for 1 hr before washing once in ice-cold PBS. Spheroids were transferred for imaging using a widened p200 pipette tip to a cover-slip bottom 24-well plate (Greiner 662892). Excess PBS was removed and spheroids were incubated with ˜20 μl of FocusClear (Cedarlane Labs, FC-101) for 20 min at room temperature prior to confocal imaging. Spheroids were imaged using 5 μm z-steps.
Quantification of spheroid cell differentiation. Maximum intensity projections of spheroids were generated and further processed in FIJI. DAPI signal was used to segment spheroids and calculate their areas in number of pixels. SIX2 and LHX1 signal was segmented using 50 pix rolling ball background subtraction and thresholding to remove background signal. The total numbers of SIX2+ and LHX1+ pixels were then divided by the total number of DAPI+ pixels to normalize positive pixels by spheroid area.

[3] = test system: Rho-associated protein kinase (ROCK); conditions: cited from earlier work

Cc1c[nH]c(-c2cnc(NCCNc3ccc(C#N)cn3)nc2-c2ccc(Cl)cc2Cl)n1 [CHIR]
Cell release from substrate and compaction [1]: induced cell release from their substrate and compaction | LHX1+ early nephron cells in spheroids (marker positive pixel area as % of projection area) [2]: increased differentiation to the LHX1+ state

Cc1cncc2cccc(S(=O)(=O)N3CCCNC[C@@H]3C)c12 [H1152]
Nephron formation, high dose ([3]; high dose H1152): decreases in nephron formation | Nephron formation, low dose ([3]; low dose H1152): increases in nephron formation

C[C@@H](N)[C@H]1CC[C@H](C(=O)Nc2ccncc2)CC1 [Y-27632]
LHX1+ early nephron cells in spheroids, agent combined with CHIR [2]: synergistic effect | SIX2+ nephron progenitors in spheroids (marker positive pixel area as % of projection area) ([2]; 10 μM Y27632 in FGF9 basal media, without CHIR): increased cell conversion to and/or self-renewal of SIX2+ progenitors | LHX1+ early nephron cells in spheroids (marker positive pixel area as % of projection area) [2]: did not by itself induce LHX1+ cells

Cc1ccc2c(c1)C(=O)[C@]1(O)CCN(c3ccccc3)C1=N2 [blebbistatin, (S)-(−)-blebbistatin]
LHX1+ early nephron cells in spheroids, agent combined with CHIR [2]: synergistic effect
